Columns and labels:
[1] = molecular target: Hepatocyte growth factor receptor (Homo sapiens, UniProt P08581); test: Inhibition of cMet (unknown origin) using poly(Glu, Tyr)4:1 substrate and ATP incubated fro 60 mins by ELISA
CAKI-1 = test: Cytotoxicity in human Caki1 cells incubated for 72 hrs by sulforhodamine B assay; details: CAKI-1, 72 h
HepG2 = test: Cytotoxicity in human HepG2 cells incubated for 72 hrs by sulforhodamine B assay; details: HepG2, 72 h
PANC-1 = test: Cytotoxicity in human PANC1 cells incubated for 72 hrs by sulforhodamine B assay; details: PANC-1, 72 h
PC-3 = test: Cytotoxicity in human PC3 cells incubated for 72 hrs by sulforhodamine B assay; details: PC-3, 72 h

Hepatocyte growth factor receptor, sequence (P08581 whole entry): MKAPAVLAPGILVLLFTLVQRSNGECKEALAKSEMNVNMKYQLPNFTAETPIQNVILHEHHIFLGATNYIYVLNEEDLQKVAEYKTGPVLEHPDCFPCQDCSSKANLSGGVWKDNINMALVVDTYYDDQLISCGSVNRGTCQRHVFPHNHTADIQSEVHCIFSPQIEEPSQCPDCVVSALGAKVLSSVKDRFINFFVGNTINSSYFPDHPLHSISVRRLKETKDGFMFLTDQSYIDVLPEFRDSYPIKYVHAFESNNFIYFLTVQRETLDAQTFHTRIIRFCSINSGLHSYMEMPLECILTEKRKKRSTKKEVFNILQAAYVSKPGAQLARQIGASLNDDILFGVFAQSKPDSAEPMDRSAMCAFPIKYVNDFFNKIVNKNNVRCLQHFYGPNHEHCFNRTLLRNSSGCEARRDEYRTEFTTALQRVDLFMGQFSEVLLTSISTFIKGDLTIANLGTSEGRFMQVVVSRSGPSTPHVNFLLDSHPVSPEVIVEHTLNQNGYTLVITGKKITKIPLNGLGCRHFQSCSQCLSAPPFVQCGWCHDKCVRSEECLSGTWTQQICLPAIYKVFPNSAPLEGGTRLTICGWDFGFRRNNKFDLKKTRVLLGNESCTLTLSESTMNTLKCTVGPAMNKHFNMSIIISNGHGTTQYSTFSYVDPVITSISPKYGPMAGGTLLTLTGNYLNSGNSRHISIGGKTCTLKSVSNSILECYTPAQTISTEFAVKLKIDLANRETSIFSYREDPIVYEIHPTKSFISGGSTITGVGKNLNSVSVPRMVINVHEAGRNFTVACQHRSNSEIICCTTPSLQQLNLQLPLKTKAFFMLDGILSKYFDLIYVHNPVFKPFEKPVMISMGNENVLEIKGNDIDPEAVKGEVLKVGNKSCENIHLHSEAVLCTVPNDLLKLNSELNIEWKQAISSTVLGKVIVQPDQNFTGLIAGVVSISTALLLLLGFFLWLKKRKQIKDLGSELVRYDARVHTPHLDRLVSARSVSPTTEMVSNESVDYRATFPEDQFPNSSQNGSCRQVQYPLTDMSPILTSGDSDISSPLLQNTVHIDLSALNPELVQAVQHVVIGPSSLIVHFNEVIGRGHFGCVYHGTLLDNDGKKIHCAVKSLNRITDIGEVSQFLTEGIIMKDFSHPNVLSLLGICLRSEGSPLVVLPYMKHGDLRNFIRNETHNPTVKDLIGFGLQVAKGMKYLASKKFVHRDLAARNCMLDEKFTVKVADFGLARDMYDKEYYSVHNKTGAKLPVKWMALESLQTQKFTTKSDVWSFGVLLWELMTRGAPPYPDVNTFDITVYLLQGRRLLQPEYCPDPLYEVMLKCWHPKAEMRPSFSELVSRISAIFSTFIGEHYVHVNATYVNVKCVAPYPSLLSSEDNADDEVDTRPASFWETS

SMILES | IC50 [1] | further results
COc1cc2c(cc1OC)Nc1nccc(Oc3ccc(NC(=O)C4(C(=O)Nc5ccc(F)cc5)CC4)cc3F)c1N=C2 | > 1 µM | 
COc1cc2c(cc1OC)Nc1ncnc(Oc3ccc(NC(=O)C4(C(=O)Nc5ccc(F)cc5)CC4)cc3F)c1N(C)C2 | > 1 µM | 
COc1cc2c(cc1OC)Nc1ncnc(Oc3ccc(NC(=O)C4(C(=O)Nc5ccc(F)cc5)CC4)cc3)c1N=C2 |  | IC50 (CAKI-1): 1.48 µM; IC50 (HepG2): 2.07 µM; IC50 (PANC-1): 2.72 µM; IC50 (PC-3): 1.42 µM
O=C(Nc1ccc(F)cc1)C1(C(=O)Nc2ccc(Oc3ncnc4c3NCc3ccccc3O4)cc2)CC1 | > 1 µM | 
COc1cc2c(cc1OC)Nc1ncnc(Oc3ccc(NC(=O)C4(C(=O)Nc5ccc(F)cc5)CC4)cc3)c1NC2 |  | IC50 (CAKI-1): 1.47 µM; IC50 (HepG2): 4.91 µM; IC50 (PANC-1): 5.34 µM; IC50 (PC-3): 7.12 µM

Continued, in another order:

IC50 [1] | SMILES | further results
> 1 µM | O=C(Nc1ccc(F)cc1)C1(C(=O)Nc2ccc(Oc3ncnc4c3N=Cc3ccccc3O4)cc2)CC1 | 
> 1 µM | COc1cc2c(cc1OC)Nc1nccc(Oc3ccc(NC(=O)C4(C(=O)Nc5ccc(F)cc5)CC4)cc3)c1N=C2 | 
> 1 µM | COc1cc2c(cc1OC)C(=O)Nc1c(ncnc1Oc1ccc(NC(=O)C3(C(=O)Nc4ccc(F)cc4)CC3)cc1)N2 | 
> 1 µM | COc1cc2c(cc1OC)Oc1ncnc(Oc3ccc(NC(=O)C4(C(=O)Nc5ccc(F)cc5)CC4)cc3)c1N=C2 | 
> 1 µM | Cc1nc(Oc2ccc(NC(=O)C3(C(=O)Nc4ccc(F)cc4)CC3)cc2)c2c(n1)Oc1ccccc1C=N2 | 

Source: ChEMBL document CHEMBL4190351, “Synthesis and biological evaluation of novel 6,11-dihydro-5H-benzo[e]pyrimido- [5,4-b][1,4]diazepine derivatives as potential c-Met inhibitors” (Eur J Med Chem, 2017)
